Measurements as given in ChEMBL document CHEMBL1201862, “PubChem BioAssay data set” (2004).
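Briefly, cells in 96-well plates were exposed to five compound concentrations for 48 h, and endpoints were estimated by linear interpolation. GI50 marks 50% less growth.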 Active and inactive are the calls of the source. No stated cut-off is given here; in the data, active = GI50 up to about 1.1 µM and inactive = higher. Where a SMILES comes first, the peptide text is derived from it. Peptide text beside a SMILES is read from it. [ ]: non-standard residue; d: D form. The star is where a group is joined. ξ: configuration not given here. ξD = NC(CC(=O)O)C(=O)O; Ac3c = NC1(C(=O)O)CC1; Boc = CC(C)(C)OC(=O)*; OBn = c1ccc(CO*)cc1

Assays:
Test in all cases: NCI tumour cell line growth inhibition, 48 h
A498 = system: A498
A549 = system: A549
HOP-62 = system: HOP-62
IGROV-1 = system: IGROV-1
K562 = system: K562
M14 = system: M14
MCF7 = system: MCF7
MDA-MB-231 = system: MDA-MB-231
MDA-MB-435 = system: MDA-MB-435
MDA-N = system: MDA-N
MOLT-4 = system: MOLT-4
OVCAR-3 = system: OVCAR-3
OVCAR-5 = system: OVCAR-5
PC-3 = system: PC-3
RPMI-8226 = system: RPMI-8226
SF-268 = system: SF-268
SK-MEL-28 = system: SK-MEL-28
UACC-257 = system: UACC-257
UACC-62 = system: UACC-62
HCC 2998 = system: HCC 2998

Measured: GI50

COC(=O)C1(NC(=O)C(CC(=O)OCc2ccccc2)NC(=O)OC(C)(C)C)CC1 (stereo not drawn) (Boc-[ξD](OBn)-[Ac3c]-OMe)
inactive: A498 > 100 µM | A549 > 100 µM | HOP-62 > 100 µM | IGROV-1 > 100 µM | K562 > 100 µM | M14 > 100 µM | MCF7 > 100 µM | MDA-MB-231 > 100 µM | MDA-MB-435 > 100 µM | MDA-N > 100 µM | MOLT-4 > 100 µM | OVCAR-3 > 100 µM | OVCAR-5 > 100 µM | PC-3 > 100 µM | RPMI-8226 > 100 µM | SF-268 > 100 µM | SK-MEL-28 > 100 µM | UACC-257 > 100 µM | UACC-62 1.58 µM

CCOP(=O)(/C=C\n1cnc2c(=O)n(C(C)=O)c(N)nc21)OCC
inactive: A498 > 100 µM | A549 > 100 µM | HOP-62 > 100 µM | IGROV-1 > 100 µM | K562 > 100 µM | M14 > 100 µM | MCF7 > 100 µM | MDA-MB-231 69.7 µM | MDA-MB-435 > 100 µM | MDA-N > 100 µM | MOLT-4 > 100 µM | OVCAR-3 > 100 µM | OVCAR-5 > 100 µM | PC-3 22.5 µM | RPMI-8226 > 100 µM | SK-MEL-28 > 100 µM | UACC-257 > 100 µM | UACC-62 > 100 µM

Cc1nnc2sc(NN)nn12
inactive: A498 > 100 µM | A549 > 100 µM | HOP-62 > 100 µM | IGROV-1 > 100 µM | K562 > 100 µM | M14 > 100 µM | MCF7 > 100 µM | MDA-MB-231 > 100 µM | MDA-MB-435 > 100 µM | MDA-N 43.5 µM | MOLT-4 17.5 µM | OVCAR-3 > 100 µM | OVCAR-5 > 100 µM | PC-3 > 100 µM | RPMI-8226 > 100 µM | SF-268 > 100 µM | SK-MEL-28 > 100 µM | UACC-257 > 100 µM | UACC-62 77.4 µM

O=C(/C=C/c1ccc(O)cc1)c1cc(O)cc(O)c1
inactive: A498 14.9 µM | A549 16.5 µM | HOP-62 15.6 µM | IGROV-1 13.7 µM | K562 2.68 µM | M14 15.7 µM | MCF7 3.54 µM | MDA-MB-231 15.5 µM | MDA-MB-435 14.2 µM | MDA-N 11.9 µM | MOLT-4 16.3 µM | OVCAR-3 15.3 µM | OVCAR-5 13.8 µM | PC-3 11.1 µM | RPMI-8226 2.16 µM | SF-268 19.8 µM | SK-MEL-28 21.2 µM | UACC-257 16.3 µM | UACC-62 10.4 µM

CC(=O)NC(CS)C(=O)NC(CO)C(=O)NC(CO)C(=O)NC(Cc1c[nH]c2ccccc12)C(=O)N1CCCC1C(=O)NC(CO)C(=O)NC(Cc1c[nH]c2ccccc12)C(=O)NC(Cc1c[nH]cn1)C(=O)NC(CO)C(=O)NC(Cc1c[nH]c2ccccc12)C(=O)NCC(=O)NCC(=O)NC(C)C(=O)NC(CCC(N)=O)C(=O)NC(CCCCN)C(=O)NC(C)C(=O)NC(CCCNC(=N)N)C(=O)NC(CCCCN)C(N)=O (stereo not drawn) (Ac-CSSWPSWHSWGGAQKARK-NH2; configuration not given here)
inactive: A498 > 50 µM | A549 > 50 µM | HOP-62 > 50 µM | IGROV-1 > 50 µM | K562 10.3 µM | M14 23.2 µM | MCF7 18.9 µM | MDA-MB-231 8.49 µM | MDA-MB-435 15.7 µM | MDA-N 19.1 µM | MOLT-4 29.8 µM | OVCAR-3 > 50 µM | OVCAR-5 > 50 µM | PC-3 > 50 µM | RPMI-8226 39 µM | SF-268 16.7 µM | SK-MEL-28 11.1 µM | UACC-257 10 µM | UACC-62 10.9 µM

Cc1ccc(/C=N/NC2=NCCN2)s1
inactive: A549 > 100 µM | HCC 2998 > 100 µM | HOP-62 > 100 µM | IGROV-1 > 100 µM | K562 41 µM | M14 > 100 µM | MCF7 > 100 µM | MDA-MB-231 > 100 µM | MDA-MB-435 > 100 µM | MDA-N > 100 µM | MOLT-4 > 100 µM | OVCAR-3 > 100 µM | OVCAR-5 > 100 µM | PC-3 > 100 µM | RPMI-8226 > 100 µM | SF-268 > 100 µM | SK-MEL-28 > 100 µM | UACC-257 > 100 µM | UACC-62 > 100 µM

CCCCCN1C(=O)C(Cc2ccccc2)N=C(c2ccc(O)cc2)c2cc(Cl)ccc21 (stereo not drawn)
inactive: A498 > 33.7 µM | A549 13.6 µM | HOP-62 23.7 µM | IGROV-1 6.73 µM | K562 3.23 µM | M14 11.2 µM | MCF7 9.98 µM | MDA-MB-231 17.3 µM | MDA-MB-435 9.53 µM | MDA-N > 21.2 µM | MOLT-4 4.09 µM | OVCAR-3 17.3 µM | OVCAR-5 22.3 µM | PC-3 6.21 µM | RPMI-8226 2.9 µM | SF-268 8.73 µM | SK-MEL-28 15.1 µM | UACC-257 7.66 µM | UACC-62 10.3 µM

Nc1c(S(=O)(=O)O)cc(Nc2cccc(S(N)(=O)=O)c2)c2c1C(=O)c1ccccc1C2=O
inactive: A498 > 100 µM | A549 > 100 µM | HOP-62 23.4 µM | IGROV-1 > 100 µM | K562 > 100 µM | M14 50.6 µM | MCF7 > 100 µM | MDA-MB-231 > 100 µM | MDA-MB-435 17.7 µM | MDA-N 20.3 µM | MOLT-4 > 100 µM | OVCAR-3 83.9 µM | OVCAR-5 > 100 µM | PC-3 > 100 µM | RPMI-8226 > 100 µM | SF-268 > 100 µM | SK-MEL-28 > 100 µM | UACC-257 54.2 µM | UACC-62 24.2 µM

CC1(C)Cc2c(sc3[nH]c(=S)[nH]c(=S)c23)CS1
inactive: A498 33 µM | A549 59.2 µM | HOP-62 88.3 µM | IGROV-1 29.9 µM | K562 29.2 µM | M14 30.2 µM | MCF7 32.8 µM | MDA-MB-231 66.8 µM | MDA-MB-435 29.9 µM | MDA-N 33.9 µM | MOLT-4 43 µM | OVCAR-3 26.2 µM | PC-3 25.4 µM | RPMI-8226 25.1 µM | SF-268 32.7 µM | SK-MEL-28 22.4 µM | UACC-257 18.2 µM | UACC-62 18.5 µM

Cc1nc(O)c(O)c(CN2CCCCC2)n1
inactive: A498 > 100 µM | A549 > 100 µM | HOP-62 > 100 µM | IGROV-1 > 100 µM | K562 > 100 µM | M14 > 100 µM | MCF7 > 100 µM | MDA-MB-231 > 100 µM | MDA-MB-435 > 100 µM | MDA-N > 100 µM | MOLT-4 > 100 µM | OVCAR-3 > 100 µM | OVCAR-5 > 100 µM | PC-3 > 100 µM | RPMI-8226 > 100 µM | SF-268 > 100 µM | SK-MEL-28 > 100 µM | UACC-257 > 100 µM | UACC-62 > 100 µM
